Results reported in PubChem BioAssay (NCI).
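Tested at 5 concentrations; 48 h exposure; 96-well plates; endpoints linearly interpolated, else capped at highest concentration. TGI: total growth inhibition.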 Where a SMILES comes first, the peptide text is derived from it. The star is where a group is joined. Cbz = O=C(OCc1ccccc1)*; Boc = CC(C)(C)OC(=O)*; OBn = c1ccc(CO*)cc1

Key:
Experiment in all cases: NCI-60 cell line screen, 48 h
[1] = tested on: HT29 colon
[2] = tested on: OVCAR-5 ovarian
[3] = tested on: RPMI-8226 leukemia
[4] = tested on: RXF 393 renal
[5] = tested on: SF-268 CNS
[6] = tested on: SF-295 CNS
[7] = tested on: SK-MEL-5 melanoma
[8] = tested on: SK-OV-3 ovarian
[9] = tested on: UO-31 renal

SMILES	TGI [1]	TGI [2]	TGI [3]	TGI [4]	TGI [5]	TGI [6]	TGI [7]	TGI [8]	TGI [9]
N#CCCN(CCC#N)c1ccc(/C=C2\N=C(c3ccccc3)N(NC(=O)c3ccncc3)C2=O)cc1	> 100 µM	> 100 µM	> 100 µM	> 100 µM	> 100 µM	> 100 µM	> 100 µM	> 100 µM	> 100 µM
CCC1c2[nH]c3ccccc3c2C[C@H]2C(=O)NC(Cc3ccccc3)C(=O)N12 (some centres undefined)	52.6 µM	65.7 µM	51.3 µM	53.6 µM	66.3 µM	57.8 µM	35.5 µM	> 100 µM	> 100 µM
Cc1ccc(NC(=O)c2cc(S(=O)(=O)N3CCNNC3=O)c(S)cc2Cl)cc1	–	> 100 µM	> 100 µM	80.6 µM	> 100 µM	> 100 µM	> 100 µM	–	> 100 µM
COc1ccc(N=C/C=C/C(=C/COC(C)=O)OC(C)=O)cc1	70.6 µM	> 100 µM	> 100 µM	57.4 µM	86 µM	> 100 µM	76.6 µM	> 100 µM	–
CSc1ccc(C=C2N=C(c3ccccc3)N(c3cc(C(=O)c4ccccc4)ccc3N3C(=O)/C(=C/c4ccc(SC)cc4)N=C3c3ccccc3)C2=O)cc1	> 100 µM	> 100 µM	> 100 µM	–	> 100 µM	> 100 µM	> 100 µM	> 100 µM	> 100 µM
CSC(=S)Nc1cc(C)ccn1	> 100 µM	> 100 µM	> 100 µM	> 100 µM	> 100 µM	> 100 µM	46.5 µM	> 100 µM	> 100 µM
C=C1C(=O)OC2C3C(=C)[C@@H](OC(C)=O)CC3C(C)=CC(OC(=O)C(C)(O)C(C)OC(C)=O)[C@@H]12 (some centres undefined)	19.4 µM	24.9 µM	65.7 µM	17.4 µM	37.9 µM	> 100 µM	20.1 µM	> 100 µM	24.9 µM
COC(=O)[C@H]1[C@H](OC(=O)[C@@H](OC)c2ccccc2)ON2CC[C@@H](OC(=O)c3ccccc3)[C@H]12	> 100 µM	> 100 µM	> 100 µM	> 100 µM	> 100 µM	> 100 µM	> 100 µM	> 100 µM	> 100 µM
COc1ccc2[nH]c3c(c2c1)CCc1ccccc1-3	> 100 µM	> 100 µM	–	–	> 100 µM	> 100 µM	> 100 µM	> 100 µM	> 100 µM
c1ccc2c(c1)SCCCSCCCS2	–	> 100 µM	–	–	> 100 µM	> 100 µM	> 100 µM	> 100 µM	–
CC(=O)N(CCc1ccccc1)C(C)(C#N)c1ccccc1 (centres undefined)	> 100 µM	> 100 µM	> 100 µM	> 100 µM	> 100 µM	> 100 µM	> 100 µM	> 100 µM	> 100 µM
C[N+](C)(C)C(Cc1c[nH]c(=S)[nH]1)C(=O)O (centres undefined)	> 100 µM	> 100 µM	> 100 µM	> 100 µM	> 100 µM	> 100 µM	> 100 µM	> 100 µM	> 100 µM
COc1ccc(OC)c(CC(=O)c2ccc(O)c(C(=O)NCCc3ccc(F)cc3)c2)c1	30.5 µM	> 100 µM	22.9 µM	2.9 µM	25 µM	10.1 µM	11.4 µM	9.96 µM	23.4 µM
Nc1nc(Cl)cc(NCC2(CO)CC(O)C2)n1 (centres undefined)	> 100 µM	> 100 µM	> 100 µM	> 100 µM	> 100 µM	> 100 µM	> 100 µM	> 100 µM	> 100 µM
O=C(O)C1CCCCN1CCc1c[nH]c2ccccc12 (centres undefined)	> 100 µM	> 100 µM	> 100 µM	> 100 µM	> 100 µM	> 100 µM	–	> 100 µM	–
CC1(c2nc3ccccc3[nH]2)CCC(CO)C(C)(C)O1 (centres undefined)	> 100 µM	> 100 µM	> 100 µM	> 100 µM	> 100 µM	> 100 µM	> 100 µM	> 100 µM	> 100 µM
NC1=NC(=O)[C@H](CSCc2ccccc2)N1C(=O)OCc1ccccc1	> 100 µM	> 100 µM	–	> 100 µM	> 100 µM	> 100 µM	> 100 µM	–	> 100 µM
COC(=O)C(CCCCNC(=O)OCc1ccccc1)NC(=O)C(CCC(=O)OCc1ccccc1)NC(=O)OC(C)(C)C (centres undefined) (Boc-Glu(OBn)-Lys(Cbz)-OMe; configuration not given here)	> 100 µM	> 100 µM	> 100 µM	> 100 µM	> 100 µM	> 100 µM	> 100 µM	> 100 µM	> 100 µM
CC1C2CC(CC2=O)C1(C)C (centres undefined)	> 100 µM	> 100 µM	–	> 100 µM	> 100 µM	> 100 µM	> 100 µM	> 100 µM	> 100 µM
O=C1C(c2c(O)n(-c3ccccc3)c3ccccc23)=Nc2ccccc21	> 100 µM	> 100 µM	> 100 µM	41.6 µM	> 100 µM	> 100 µM	69.8 µM	> 100 µM	> 100 µM
Nc1nc(SCC(=O)c2ccccc2)nc2nc3c(c(-c4ccccc4)c12)CCCC3	> 100 µM	> 100 µM	> 100 µM	70.8 µM	61.5 µM	–	> 100 µM	76.8 µM	> 100 µM
CCCN=C1S/C(=C/c2ccc(OC)c(OC)c2)C(=O)N1c1ccccc1	> 100 µM	> 100 µM	> 100 µM	–	> 100 µM	34.9 µM	> 100 µM	37.8 µM	98.6 µM
c1ccc2c(-c3ccnc(-c4c[nH]c5ccccc45)n3)c[nH]c2c1	7.33 µM	> 100 µM	4.61 µM	–	> 100 µM	> 100 µM	15 µM	> 100 µM	> 100 µM
